The record followed here is patent US20220016273A1, “COMPOSITION FOR DIAGNOSIS OF FUNGAL INFECTION” (CNCURE BIOTECH INC., priority 2019, published 2022).

One test has as its system C. albicans. Kind of test: In vitro uptake of [^18F]FDS by cultured strains (gamma counter). It is filed as cell-based, Candida albicans. As to conditions: 1×10^8 per mL, 0.74 MBq, incubated 2 hours (FIG. 3). The method, then:
(§1) The present inventors cultured the fungus using the following method. Specifically, Aspergillus fumigatus was smeared on potato dextrose agar medium (or YAG, yeast extract agar medium), and cultured at 30° C. for 2-3 days. Thereafter, the culture plate was washed with sterile physiological saline and Tween 20 [10 μl (1 drop)] and filtered with sterile gauze (or 40 μm-pore insertion filter). Then, the pellet was recovered using a centrifuge and the number of fungi was confirmed to prepare a bacterial solution of 1.5×10^9 conida/mL. Rhizopus arrhizus isolated from the patient was also cultured in the same way as A. fumigatus, prepared a fungal solution, and used for in vitro experiments. For Candida albicans, a strain isolated from the patient was also used, and cultured in SDA medium for 2-3 days. After recovering from the medium, a fungal solution was prepared.
(§2) The present inventors performed in vitro experiments on the strain cultured in Example 2 above. Specifically, each strain was prepared to be 1×10^8 per 1 mL of medium, and 1 mL was dispensed into tubes. The experiments were performed three times according to the experimental period, and 0.74 MBq of [^18F]FDS synthesized as described above was injected and incubated for 2 hours in the incubator. […] After washing twice with phosphate buffer, the filtered fungi were collected and the intake was measured with a gamma counter. […]

The subject of a further test is A. fumigatus. The test is described as above. It is filed as cell-based, Aspergillus fumigatus. The note with it: 1×10^8 per mL, 0.74 MBq, incubated 2 hours (FIG. 3). The method, then: as §1, §2
A further test relates to fungi. Description: In vitro uptake of [^18F]FDS, fungi compared with bacteria. In kind it is cell-based. As to conditions: in vitro experiment; fungi vs bacteria. The procedure:
(§3) The present inventors performed in vitro experiments on the strain cultured in Example 2 above. Specifically, each strain was prepared to be 1×10^8 per 1 mL of medium, and 1 mL was dispensed into tubes. The experiments were performed three times according to the experimental period, and 0.74 MBq of [^18F]FDS synthesized as described above was injected and incubated for 2 hours in the incubator. After 2 hours, each strain was divided into a filterable 1.5 mL centrifuge tube, and the fungi and medium were separated through centrifugation. After washing twice with phosphate buffer, the filtered fungi were collected and the intake was measured with a gamma counter.

The subject of another test is Rhizopus sp. Description: In vitro uptake of [^18F]FDS by cultured strains (gamma counter). As to conditions: 1×10^8 per mL, 0.74 MBq, incubated 2 hours (FIG. 3). In kind it is cell-based, Rhizopus arrhizus. The procedure:
as §1, §2

For test [1], the system named is A. fumigatus lung infection. Kind of test: microPET imaging in A. fumigatus lung infection small animal model. It is filed as in vivo. As to conditions: Balb/c mice infected with A. fumigatus in the lung; 7.4 MBq tail vein; image 2 hours after injection (FIG. 4). The procedure: The present inventors created a lung infection model by the following method. First, after preparing Balb/c mice 8 weeks old (female), 150 mg/kg 100 μl of cyclophosphamide was intraperitoneally injected 4 days before infection. After 3 days, 100 μl of 250 mg/kg of cortisone acetate was injected into the subcutaneous fat layer, and the mice were anesthetized after 24 hours. And then the lung infection model mice were prepared by the injection of 70 μl of A. fumigatus fungal solution (about […]) through the nasal cavity.
(§4) The present inventors acquired microPET images 2 hours after injecting the [^18F]FDS (7.4 MBq) according to the present invention into the tail vein of the infected mice, and the acquired images were reconstructed by using the 3D-ordered subset expectation maximization (3D-OSEM) method.
The present inventors confirmed the fungal selective uptake ability of [^18F]FDS of the present invention using small animal infection models. To this end, [^18F]FDS was administered intravenously to Balb/c mice infected with A. fumigatus in the lung prepared in Example 4, and microPET images were acquired and analyzed.

Test [2] deals with gram-negative bacterial strains. Description: In vitro uptake of [^18F]FDS by bacterial strains. The note with it: gram-negative bacterial strains (FIG. 3). It is filed as cell-based. The procedure:
as §3
(§5) The present inventors confirmed the uptake ability of [^18F]FDS of the present invention using fungal strain cultivation.

Test [3] relates to gram-positive bacterial strains. Kind of test: In vitro uptake of [^18F]FDS by bacterial strains. In kind it is cell-based. As to conditions: gram-positive bacterial strains (FIG. 3). The method, then:
as §3, §5

Test [4] concerns A. fumigatus muscle infection. Description: microPET imaging in A. fumigatus muscle infection small animal model. In kind it is in vivo. As to conditions: Balb/c mice, A. fumigatus forelimb muscle infection; 7.4 MBq tail vein; image 2 hours after injection; compared to the control group (FIGS. 5-7). The procedure: The present inventors produced a muscle infection model by the following method. First, after preparing Balb/c mice 8 weeks old (female), 150 mg/kg 100 μl of cyclophosphamide was intraperitoneally injected 4 days before infection. After 3 days, 100 μl of 250 mg/kg of cortisone acetate was injected into the subcutaneous fat layer, and the mice were anesthetized after 24 hours. And then the muscle infection model mice were prepared by the injection of 100 μl of A. fumigatus fungal solution (about 1.5×10^8 conidia) into the forelimb muscle of the mice.
as §4

On to `OC[C@@H](O)[C@@H](O)[C@H](O)[C@@H]([18F])CO` [[^18F]FDS, 2-deoxy-2-[^18F]fluorosorbitol], for which the “uptake of [^18F]FDS” value in the test with C. albicans is reported as “very high selective uptake”; in the test on A. fumigatus, “very high selective uptake”; in the test with Rhizopus sp., “very high selective uptake”; in test [2], “showed uptake”; in test [3], “did not show no uptake”. Also, in the test on fungi, the “degree of uptake of [^18F]FDS by fungi relative to bacterial uptake” value was “more than 10 times”. In addition, in test [1], the “uptake of [^18F]FDS in the lungs (microPET)” value was “very high selective uptake”. The “uptake of [^18F]FDS at the muscle infection site (microPET)” value in test [4] is given as “very high selective uptake”.
